These results are taken from article PMC12844237, “A Novel Quinolone JH62 (E-2-(Tridec-4-en-1-yl)-quinolin-4(1H)-one) from Pseudomonas aeruginosa Exhibits Potent Anticancer Activity” (Microorganisms, 2025).

For orientation: IC50 means the concentration that inhibits the measured activity by half.

In data set [1] the test system is AML12: mouse liver cell lines. The experiment in a line: WST-1 cell viability, AML12. To be noted: AML12, non-cancer cell line. It is filed as cell-based. The text has this: (§1) Different cells were utilized as follows: MEF: murine embryonic fibroblast (RRID: CVCL_L690); AML12: mouse liver cell lines (RRID: CVCL_0140); WI-38: human lung fibroblast cell lines (RRID: CVCL_0579); THLE-2: human liver epithelial cell lines (RRID: CVCL_3803); A549: human lung cancer cell lines (RRID: CVCL_0023); HEPG2: human liver cancer cell lines (RRID: CVCL_0027); HEP3B: human hepatoma cell lines (RRID: CVCL_0326); BxPC3: human pancreatic cancer cell lines (RRID: CVCL_0186); U87: human primary glioblastoma cell lines (RRID: CVCL_0022); DU145: human prostate cancer cell lines (RRID: CVCL_0105); MCF7: human breast cancer cell lines (RRID: CVCL_0031); HeLa: human cervical cancer cell lines (RRID: CVCL_0030); HCT116: human colon cancer cell lines (RRID: CVCL_0291). Cells were maintained in Dulbecco’s modified Eagle’s medium (DMEM, Gibco) supplemented with L-glutamine (Lonza) (2 mM), 10% fetal bovine serum (FBS, Hyclone), 1 × non-essential amino acids, and sodium pyruvate (1 mM). THLE-2 cells were maintained in THLE-2 Cell Complete Medium (Zhong Qiao Xin Zhou, Shanghai, China). Cells were incubated at 37 °C in a humidified incubator with 5% CO2. […]
(§2) Cell viability was assessed using the WST-1 assay, based on a previously reported method with slight modifications. […] Absorbance at OD450 was measured using a microplate reader (Synergy H1; BioTek Instruments, Winooski, VT, USA).
In general terms: Tetrazolium dyes change colour on reduction, which living cells bring about.

Data set [2] concerns HEPG2: human liver cancer cell lines. The experiment in a line: WST-1 cell viability, HEPG2. As to conditions: HEPG2 (liver) cancer cell line. It is filed as cell-based.
Text: as §1, §2

Data set [3] deals with A549 lung cancer cell colonies. Description: Cell colony formation assay. It is filed as cell-based, human. To be noted: compared to the control group. From the text: The cell colony formation assay, an in vitro method used to evaluate the proliferative capacity of cancer cells, was employed.
In data set [4] the test system is non-cancer cells (MEF, AML12, WI-38, and THLE-2). Description: WST-1 cell viability, panel of non-cancer cells. The data set is classed as cell-based. As to conditions: across non-cancer cells (MEF, AML12, WI-38, and THLE-2). Here is the method: (§3) Cell viability was assessed using the WST-1 assay, based on a previously reported method with slight modifications. Briefly, cells were seeded at 1 × 10^4 cells per well in 96-well plates and then treated with different doses of JH62 or DOX for 0–72 h. The cells used included non-cancer cells (MEF, AML12, WI-38, and THLE-2) and cancer cells (A549, HEPG2, HEP3B, BxPC3, U87, DU145, MCF7, HeLa, and HCT116). The WST-1 reagent (Roche, Shanghai, China) was added to each well (10% vol/vol final concentration), followed by incubation for 3 h at 37 °C. Absorbance at OD450 was measured using a microplate reader (Synergy H1; BioTek Instruments, Winooski, VT, USA).

Data set [5] concerns THLE-2: human liver epithelial cell lines. The experiment in a line: WST-1 cell viability, THLE-2. The data set is classed as cell-based. As to conditions: THLE-2, non-cancer cell line.
Text: as §1, §2

Data set [6] concerns DU145: human prostate cancer cell lines. The experiment in a line: WST-1 cell viability, DU145. The data set is classed as cell-based. To be noted: DU-145, DU145 (prostate) cancer cell line.
Text: as §1, §2

For data set [7], the system named is A549 cells. The experiment in a line: Chromosome staining experiment. The data set is classed as cell-based, human. To be noted: A549, 5 μM DOX or 25 μM JH62 for 6 h. Here is the method:
Metaphase chromosome spreads were prepared from A549 cells. Briefly, A549 cells were cultured. After treatment with JH62 or DOX, cells were incubated with Colcemid (Gibco BRL; 0.2 μg/mL final concentration) for 2 h to arrest cells in metaphase. Cells were then subjected to hypotonic treatment in KCl (0.075 M) at 37 °C for 5 min, and fixed by repeated washing with ice-cold freshly prepared 3:1 (vol/vol) methanol:acetic acid. Chromosome spreads were prepared on premarked glass slides using the “drop-cryo” protocol. The chromosome suspension was dropped onto a slide. This was followed by adding three drops of 45% acetic acid and placing a coverslip over the suspension. The slide was then inverted and placed on dry ice for 15 min. The spreads were postfixed in 2.5% glutaraldehyde in cacodylate buffer (pH 7.4, 75 mM) for 15 min and washed with cacodylate buffer (0.1 M). The chromosomes were stained with Vista Green DNA dye (Cell Biolabs, Singapore). After staining, the preparations were washed in water for 5, 10, and 15 min, then dehydrated using a series of ethanol solutions as follows: 5 min in a 70% solution, 10 min in an 85% solution, and 15 min in 100% ethanol. Finally, slides were mounted with a permanent mounting medium, sealed, and analyzed by microscopy.

In another data set the test system is LC3B in A549 cells. The experiment in a line: Immunofluorescence staining for LC3B. It is filed as cell-based, human. To be noted: A549, JH62 over 2–24 h. The text has this:
We next investigated whether autophagy contributes to JH62-induced cell death.

Data set [8] has as its system A549: human lung cancer cell lines. Description: WST-1 cell viability, A549. The data set is classed as cell-based. As to conditions: for IC50: WST-1; for reduced viability: 24 h.
Text: Different cells were utilized as follows: MEF: murine embryonic fibroblast (RRID: CVCL_L690); AML12: mouse liver cell lines (RRID: CVCL_0140); WI-38: human lung fibroblast cell lines (RRID: CVCL_0579); THLE-2: human liver epithelial cell lines (RRID: CVCL_3803); A549: human lung cancer cell lines (RRID: CVCL_0023); HEPG2: human liver cancer cell lines (RRID: CVCL_0027); HEP3B: human hepatoma cell lines (RRID: CVCL_0326); BxPC3: human pancreatic cancer cell lines (RRID: CVCL_0186); U87: human primary glioblastoma cell lines (RRID: CVCL_0022); DU145: human prostate cancer cell lines (RRID: CVCL_0105); MCF7: human breast cancer cell lines (RRID: CVCL_0031); HeLa: human cervical cancer cell lines (RRID: CVCL_0030); HCT116: human colon cancer cell lines (RRID: CVCL_0291). Cells were maintained in Dulbecco’s modified Eagle’s medium (DMEM, Gibco) supplemented with L-glutamine (Lonza) (2 mM), 10% fetal bovine serum (FBS, Hyclone), 1 × non-essential amino acids, and sodium pyruvate (1 mM). THLE-2 cells were maintained in THLE-2 Cell Complete Medium (Zhong Qiao Xin Zhou, Shanghai, China). Cells were incubated at 37 °C in a humidified incubator with 5% CO2. A549 cells were previously stored in the lab and other cell lines were a gift from Haishan Wang’s lab (Institute of Molecular and Cell Biology, Singapore). All cell lines were confirmed to be contamination-free.
as §3

Data set [9] deals with MEF: murine embryonic fibroblast. The experiment in a line: WST-1 cell viability, MEF. As to conditions: Mus musculus, non-cancer cell line. It is filed as cell-based.
Text: as §1, §2

In data set [10] the test system is A549 cells. The experiment in a line: Comet assay. The data set is classed as cell-based, human. To be noted: A549, 1, 8, and 12 h. Here is the method:
Residual DNA damage was detected by alkaline single cell gel electrophoresis (Comet Assay) using the Trevigen Comet Assay Kit (Trevigen, Gaithersburg, MD, USA) following the manufacturer’s protocol with slight modifications. […] The treated cells were trypsinized and pelleted by centrifugation. The cell pellets were washed and resuspended in 2 mL of ice-cold PBS. The cell suspension was mixed 1:10 (vol/vol) with low-melting point agar at 42 °C and immediately pipetted onto a CometSlide™. Slides were incubated at 4 °C in the dark for 30 min, immersed in chilled lysis solution and incubated again at 4 °C for 30 min. Slides were placed in a horizontal electrophoresis chamber and electrophoresed with buffer NaOH (0.3 M) and EDTA (1 mM) at 1 V/cm for 15 min. Samples were dried and stained with Vista Green DNA dye (Cell Biolabs, Singapore). Comet tails were imaged using a model DM 2500 fluorescent microscope (Leica, Wetzlar, Germany) and quantified by Komet 5.5 software (Andor Technology, Belfast, UK). A minimum of 50 cells were scored per treatment. All experiments were performed independently in triplicate.

As to `CCCCCCCC/C=C/CCCc1cc(=O)c2ccccc2[nH]1` [JH62, E-2-(tridec-4-en-1-yl)-quinolin-4(1H)-one], the concentration for half-maximal inhibition (IC50) in data set [1] was 37.1 ± 0.7 µM; in [2], 17.2 ± 0.6 µM; in data set [4] it was more than 25 µM; in data set [5], 27.3 ± 4.9 µM; in [6], 13.8 ± 3.3 µM; in data set [8] (A549 (lung) cancer cell line) it was 14.8 ± 0.1 µM. The half-maximal inhibitory concentration (IC50) in data set [8] (Homo sapiens, A549, A549 (lung) cancer cell line) came to 15 µM; in data set [9] it was 47.2 ± 4.8 µM. Moreover, the “reduced the number of A549 lung cancer cell colonies” value in data set [3] (6.3 μM) was found to be 34%; in [3] (12.5 μM) it was 71%. Moreover, in the data set with A549 cells [7], the chromosome morphology entry is given as “maintained normal morphology similar to the control”. Moreover, the “LC3B puncta (autophagosome formation)” value in the data set on LC3B in A549 cells was “progressively increased both the intensity and number of LC3B puncta”. Besides, the reduced viability in data set [8] (A549, 12.5 μM) was found to be 20%; in [8] (A549, 25 μM), 48%; in data set [8] (A549, 50 μM), 78%. In addition, the viability decreased in [8] (A549, 12.5 μM, 32 h) worked out at 32%; in data set [8] (A549, 12.5 μM, 48 h) it was 19%; in data set [8] (A549, 25 μM, 32 h), 65%; in [8] (A549, 25 μM, 48 h), 74%; in data set [8] (A549, 50 μM, 32 h), 84%; in data set [8] (A549, 50 μM, 48 h) it was 92%. In addition, the comet tail analysis result with A549 cells [10] is listed as “maintenance of DNA integrity”.
